Measured values published in ChEMBL document CHEMBL2074452, “Mercapturic acids (N-acetylcysteine S-conjugates) as endogenous substrates for the renal organic anion transporter-1” (Mol Pharmacol, 2001).

Key:
[1] = biological target: T1, Solute carrier family 22 member 6 (Rattus norvegicus, UniProt O35956); test: TP_TRANSPORTER: inhibition of PAH uptake in Xenopus laevis oocytes; assay type: functional, cell-based, Oocyte
T1 sequence (O35956 whole entry): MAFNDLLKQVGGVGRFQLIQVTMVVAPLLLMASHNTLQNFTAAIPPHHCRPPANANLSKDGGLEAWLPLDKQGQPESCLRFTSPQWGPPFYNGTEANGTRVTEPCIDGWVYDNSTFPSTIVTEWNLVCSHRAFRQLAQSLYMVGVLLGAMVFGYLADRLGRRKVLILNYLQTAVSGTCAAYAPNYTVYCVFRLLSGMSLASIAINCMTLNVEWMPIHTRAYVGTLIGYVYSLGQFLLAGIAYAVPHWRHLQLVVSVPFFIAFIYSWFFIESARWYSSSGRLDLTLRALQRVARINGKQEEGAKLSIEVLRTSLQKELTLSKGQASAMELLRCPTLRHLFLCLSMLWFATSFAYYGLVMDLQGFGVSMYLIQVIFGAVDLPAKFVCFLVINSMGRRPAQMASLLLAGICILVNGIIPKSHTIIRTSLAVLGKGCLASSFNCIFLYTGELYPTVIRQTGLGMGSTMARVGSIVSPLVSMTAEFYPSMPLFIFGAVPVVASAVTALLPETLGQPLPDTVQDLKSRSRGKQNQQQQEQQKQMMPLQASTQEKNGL

[2] = biological target: T1, Solute carrier family 22 member 6; test: TP_TRANSPORTER: inhibition of DNP-NAC uptake (DNP-NAC: 1 uM, N-acetylnorleucine: 1000 uM) in Xenopus laevis oocytes; assay type: functional, cell-based; settings: oocyte
[3] = biological target: T1, Solute carrier family 22 member 6; test: TP_TRANSPORTER: inhibition of PAH uptake (PAH: 20 uM, N-acetylnorleucine: 1000 uM) in Xenopus laevis oocytes; assay type: functional, cell-based; settings: oocyte
[4] = biological target: T1, Solute carrier family 22 member 6; test: TP_TRANSPORTER: inhibition of DNP-NAC uptake (DNP-NAC: 1 uM, Dodecyl-NAC: 1000 uM) in Xenopus laevis oocytes; assay type: functional, cell-based; settings: oocyte
[5] = biological target: T1, Solute carrier family 22 member 6; test: TP_TRANSPORTER: inhibition of PAH uptake (PAH: 20 uM, Dodecyl-NAC: 500 uM) in Xenopus laevis oocytes; assay type: functional, cell-based; settings: oocyte
[6] = biological target: T1, Solute carrier family 22 member 6; test: TP_TRANSPORTER: inhibition of DNP-NAC uptake (DNP-NAC: 1 uM, NAC: 1000 uM) in Xenopus laevis oocytes; assay type: functional, cell-based; settings: oocyte
[7] = biological target: T1, Solute carrier family 22 member 6; test: TP_TRANSPORTER: inhibition of DNP-NAC uptake (DNP-NAC: 1 uM, 3-Phenyl-propyl-NAC: 1000 uM) in Xenopus laevis oocytes; assay type: functional, cell-based; settings: oocyte
[8] = biological target: T1, Solute carrier family 22 member 6; test: TP_TRANSPORTER: inhibition of PAH uptake (PAH: 20 uM, 3-Phenyl-propyl-NAC: 1000 uM) in Xenopus laevis oocytes; assay type: functional, cell-based; settings: oocyte
[9] = biological target: T1, Solute carrier family 22 member 6; test: TP_TRANSPORTER: inhibition of PAH uptake (PAH: 20 uM, diCl-vinyl-NAC: 1000 uM) in Xenopus laevis oocytes; assay type: functional, cell-based; settings: oocyte
[10] = biological target: T1, Solute carrier family 22 member 6; test: TP_TRANSPORTER: inhibition of DNP-NAC uptake (DNP-NAC: 1 uM, diCl-vinyl-NAC: 1000 uM) in Xenopus laevis oocytes; assay type: functional, cell-based; settings: oocyte
[11] = biological target: T1, Solute carrier family 22 member 6; test: TP_TRANSPORTER: inhibition of DNP-NAC uptake (DNP-NAC: 1 uM, Butyl-NAC: 1000 uM) in Xenopus laevis oocytes; assay type: functional, cell-based; settings: oocyte
[12] = biological target: T1, Solute carrier family 22 member 6; test: TP_TRANSPORTER: inhibition of PAH uptake (PAH: 20 uM, Butyl-NAC: 500 uM) in Xenopus laevis oocytes; assay type: functional, cell-based; settings: oocyte
[13] = biological target: T1, Solute carrier family 22 member 6; test: TP_TRANSPORTER: inhibition of PAH uptake (PAH: 20 uM, Propyl-NAC: 1000 uM) in Xenopus laevis oocytes; assay type: functional, cell-based; settings: oocyte
[14] = biological target: T1, Solute carrier family 22 member 6; test: TP_TRANSPORTER: inhibition of DNP-NAC uptake (DNP-NAC: 1 uM, Propyl-NAC: 1000 uM) in Xenopus laevis oocytes; assay type: functional, cell-based; settings: oocyte
[15] = biological target: T1, Solute carrier family 22 member 6; test: TP_TRANSPORTER: inhibition of DNP-NAC uptake (DNP-NAC: 1 uM, Allyl-NAC: 1000 uM) in Xenopus laevis oocytes; assay type: functional, cell-based; settings: oocyte
[16] = biological target: T1, Solute carrier family 22 member 6; test: TP_TRANSPORTER: inhibition of PAH uptake (PAH: 20 uM, Allyl-NAC: 1000 uM) in Xenopus laevis oocytes; assay type: functional, cell-based; settings: oocyte
[17] = biological target: T1, Solute carrier family 22 member 6; test: TP_TRANSPORTER: inhibition of PAH uptake (PAH: 20 uM, PentaCl-butadiene-NAC: 500 uM) in Xenopus laevis oocytes; assay type: functional, cell-based; settings: oocyte
[18] = biological target: T1, Solute carrier family 22 member 6; test: TP_TRANSPORTER: inhibition of DNP-NAC uptake (DNP-NAC: 1 uM, PentaCl-butadiene-NAC: 1000 uM) in Xenopus laevis oocytes; assay type: functional, cell-based; settings: oocyte
[19] = biological target: T1, Solute carrier family 22 member 6; test: TP_TRANSPORTER: inhibition of DNP-NAC uptake (DNP-NAC: 1 uM, Benzyl-NAC: 1000 uM) in Xenopus laevis oocytes; assay type: functional, cell-based; settings: oocyte
[20] = biological target: T1, Solute carrier family 22 member 6; test: TP_TRANSPORTER: inhibition of PAH uptake (PAH: 20 uM, Propanol-NAC: 1000 uM) in Xenopus laevis oocytes; assay type: functional, cell-based; settings: oocyte
[21] = biological target: T1, Solute carrier family 22 member 6; test: TP_TRANSPORTER: inhibition of DNP-NAC uptake (DNP-NAC: 1 uM, Propanol-NAC: 1000 uM) in Xenopus laevis oocytes; assay type: functional, cell-based; settings: oocyte
[22] = substrate: CC(=O)N[C@@H](CSc1ccc([N+](=O)[O-])cc1[N+](=O)[O-])C(=O)O; test: TP_TRANSPORTER: uptake in Xenopus laevis oocytes; assay type: functional, cell-based, Oocyte

## CC(=O)N[C@@H](CSc1ccc([N+](=O)[O-])cc1[N+](=O)[O-])C(=O)O
[1]
  Ki: 1900 nM

## CCCC[C@H](NC(C)=O)C(=O)O
[2]
  Activity: inhibitor [(at a rough estimate) 35 % of control]
[3]
  Activity: inhibitor [(at a rough estimate) 15 % of control]

## CCCCCCCCCCCCSC[C@@H](NC(C)=O)C(=O)O
[4]
  Activity: inhibitor [(at a rough estimate) <5 % of control]
[5]
  Activity: inhibitor [(at a rough estimate) 15 % of control]

## CC(=O)N[C@@H](CS)C(=O)O [ACETYLCYSTEINE]
[6]
  Activity: inhibitor [(at a rough estimate) 60 % of control]

## CC(=O)NC(CSCCCc1ccccc1)C(=O)O (stereo not given)
[7]
  Activity: inhibitor [(at a rough estimate) 10 % of control]
[8]
  Activity: inhibitor [(at a rough estimate) 5 % of control]

## CC(=O)N[C@@H](CS/C(Cl)=C\Cl)C(=O)O
[9]
  Activity: inhibitor [(at a rough estimate) 5 % of control]
[10]
  Activity: inhibitor [(at a rough estimate) 25 % of control]

## CCCCC/C=C\C\C=C/C=C/C=C/[C@@H](SC[C@H](NC(C)=O)C(=O)O)[C@@H](O)CCCC(=O)O
[1]
  Ki: 9000 nM

## CCCCSCC(NC(C)=O)C(=O)O (stereo not given)
[11]
  Activity: inhibitor [(at a rough estimate) 5 % of control]
[12]
  Activity: inhibitor [(at a rough estimate) 5 % of control]
[13]
  Activity: inhibitor [(at a rough estimate) 10 % of control]
[14]
  Activity: inhibitor [(at a rough estimate) 30 % of control]

## CCSC[C@@H](NC(C)=O)C(=O)O
[1]
  Ki: 1100 nM

## C=CCSCC(NC(C)=O)C(=O)O (stereo not given)
[15]
  Activity: inhibitor [(at a rough estimate) 15 % of control]
[16]
  Activity: inhibitor [(at a rough estimate) 10 % of control]

## CC(=O)NC(CS/C(Cl)=C(\Cl)C(Cl)=C(Cl)Cl)C(=O)O (stereo not given)
[17]
  Activity: inhibitor [(at a rough estimate) 15 % of control]
[18]
  Activity: inhibitor [(at a rough estimate) <5 % of control]

## COC(=O)[C@@H](CSCc1ccccc1)NC(C)=O
[19]
  Activity: inhibitor [(at a rough estimate) 30 % of control]
[1]
  Ki: 400 nM

## CC(=O)NC(CSCCCO)C(=O)O (stereo not given)
[20]
  Activity: inhibitor [(at a rough estimate) 5 % of control]
[21]
  Activity: inhibitor [(at a rough estimate) 30 % of control]

B1: Solute carrier family 22 member 6 (Rattus norvegicus) (protein)
chain: MAFNDLLKQVGGVGRFQLIQVTMVVAPLLLMASHNTLQNFTAAIPPHHCRPPANANLSKDGGLEAWLPLDKQGQPESCLRFTSPQWGPPFYNGTEANGTRVTEPCIDGWVYDNSTFPSTIVTEWNLVCSHRAFRQLAQSLYMVGVLLGAMVFGYLADRLGRRKVLILNYLQTAVSGTCAAYAPNYTVYCVFRLLSGMSLASIAINCMTLNVEWMPIHTRAYVGTLIGYVYSLGQFLLAGIAYAVPHWRHLQLVVSVPFFIAFIYSWFFIESARWYSSSGRLDLTLRALQRVARINGKQEEGAKLSIEVLRTSLQKELTLSKGQASAMELLRCPTLRHLFLCLSMLWFATSFAYYGLVMDLQGFGVSMYLIQVIFGAVDLPAKFVCFLVINSMGRRPAQMASLLLAGICILVNGIIPKSHTIIRTSLAVLGKGCLASSFNCIFLYTGELYPTVIRQTGLGMGSTMARVGSIVSPLVSMTAEFYPSMPLFIFGAVPVVASAVTALLPETLGQPLPDTVQDLKSRSRGKQNQQQQEQQKQMMPLQASTQEKNGL
[22]
  Km: 2 µM
